Laboratory results: patent US20100267561A1, “HERBICIDAL PYRIDAZINONE DERIVATIVES” (priority 2007, published 2010)

Legend:
Experiment in all cases: Test B pre-/postemergence plant response
Assay type in all cases: in vivo
[1] = system: wild oat (Avena fatua)
Description: (§1) Seeds of plant species selected from blackgrass (Alopecurus myosuroides), downy bromegrass (Bromus tectorum), green foxtail (Setaria viridis), Italian ryegrass (Lolium multiflorum), wheat (Triticum aestivum), wild oat (Avena fatua), catchweed bedstraw (Galium aparine), bermudagrass (Cynodon dactylon), surinam grass (Brachiaria decumbens), cocklebur (Xanthium strumarium), corn (Zea mays), large crabgrass (Digitaria sanguinalis), woolly cupgrass (Eriochloa villosa), giant foxtail (Setaria faberii), goosegrass (Eleusine indica), johnsongrass (Sorghum halepense), kochia (Kochia scoparia), lambsquarters (Chenopodium album), morningglory (Ipomoea coccinea), eastern black (E.B.) nightshade (Solanum ptycanthum), yellow nutsedge (Cyperus esculentus), pigweed (Amaranthus retroflexus), common ragweed (Ambrosia elation), Russian thistle (Salsola iberica), soybean (Glycine max), common (oilseed) sunflower (Helianthus annuus), and velvetleaf (Abutilon theophrasti) were planted and treated preemergence with test chemicals formulated in a non-phytotoxic solvent mixture which included a surfactant.
(§2) At the same time, plants selected from these crop and weed species and also winter barley (Hordeum vulgare), canarygrass (Phalaris minor), chickweed (Stellaria media) and windgrass (Apera spica-venti) were treated with postemergence applications of some of the test chemicals formulated in the same manner. Plants ranged in height from 2 to 18 cm (1- to 4-leaf stage) for postemergence treatments.
(§3) Plant species in the flooded paddy test consisted of rice (Oryza sativa), umbrella sedge (Cyperus difformis), ducksalad (Heteranthera limosa) and barnyardgrass (Echinochloa crus-galli) grown to the 2-leaf stage for testing. At time of treatment, test pots were flooded to 3 cm above the soil surface, treated by application of test compounds directly to the paddy water, and then maintained at that water depth for the duration of the test. Treated plants and controls were maintained in a greenhouse for 13 to 15 days, after which time all species were compared to controls and visually evaluated. Plant response ratings, summarized in Table B, are based on a scale of 0 to 100 where 0 is no effect and 100 is complete control. A dash (-) response means no test result.

[2] = system: pigweed (Amaranthus retroflexus)
Description: as §1, §2, §3

[3] = system: common ragweed (Ambrosia elation)
Description: as §1, §2, §3

[4] = system: velvetleaf (Abutilon theophrasti)
Description: as §1, §2, §3

[5] = system: corn (Zea mays); settings: for Corn plant response rating: 8 g ai/ha
Description: as §1, §2, §3

[6] = system: yellow nutsedge (Cyperus esculentus)
Description: as §1, §2, §3

[7] = system: blackgrass (Alopecurus myosuroides); settings: for Blackgrass plant response rating: 8 g ai/ha, postemergence, 0-100 scale
Description: as §1, §2, §3

[8] = system: woolly cupgrass (Eriochloa villosa); settings: for Cupgrass, Woolly plant response rating: 8 g ai/ha
Description: as §1, §2, §3

[9] = system: downy bromegrass (Bromus tectorum); settings: for Bromegrass, Downy plant response rating: 8 g ai/ha
Description: as §1, §2, §3

[10] = system: lambsquarters (Chenopodium album)
Description: as §1, §2, §3

[11] = system: common (oilseed) sunflower (Helianthus annuus); settings: Preemergence
Description: as §1, §2, §3

[12] = system: giant foxtail (Setaria faberii); settings: for Foxtail, Giant plant response rating: 8 g ai/ha
Description: as §1, §2, §3

[13] = system: kochia (Kochia scoparia); settings: for Kochia plant response rating: postemergence, 0-100 scale; for Plant response rating, Kochia: Postemergence
Description: as §1, §2, §3

[14] = Preemergence, 16 g ai/ha, scale 0 to 100 (0 no effect, 100 complete control)
[15] = Preemergence, 31 g ai/ha, 0 to 100 scale, 0 no effect, 100 complete control
[16] = Preemergence, 62 g ai/ha, scale 0 to 100
[17] = Preemergence, 8 g ai/ha, scale 0 to 100
[18] = 8 g ai/ha, postemergence, 0-100 scale
[19] = 16 g ai/ha, postemergence, 0-100 scale
[20] = Postemergence, 31 g ai/ha, scale 0 to 100
[21] = Postemergence, 62 g ai/ha, scale 0 to 100, 0 no effect, 100 complete control
[22] = Postemergence, 16 g ai/ha, scale 0 to 100
[23] = 62 g ai/ha, scale 0 to 100, 0 no effect, 100 complete control

Compound: Cc1cc(-c2ccc(C(F)(F)F)cc2)nn1-c1c(O)c(C(C)C)nn(C)c1=O [Compound 27]
- Plant response rating, Oat, Wild [1, 14]: 0
- Plant response rating, Oat, Wild [1, 15]: 50
- Plant response rating, Oat, Wild [1, 16]: 50
- Oat, Wild plant response rating [1, 17]: 0
- Plant response rating, Pigweed [2, 14]: 0
- Plant response rating, Pigweed [2, 15]: 0
- Plant response rating, Pigweed [2, 16]: 0
- Pigweed plant response rating [2, 17]: 0
- Plant response rating, Ragweed [3, 14]: 0
- Plant response rating, Ragweed [3, 15]: 0
- Plant response rating, Ragweed [3, 16]: 0
- Ragweed plant response rating [3, 17]: 0
- Plant response rating, Velvetleaf [4, 14]: 0
- Plant response rating, Velvetleaf [4, 15]: 0
- Plant response rating, Velvetleaf [4, 16]: 0
- Velvetleaf plant response rating [4, 17]: 0
- Plant response rating, Corn [5, 14]: 0
- Plant response rating, Corn [5, 15]: 75
- Plant response rating, Corn [5, 16]: 85
- Corn plant response rating ([5]; Preemergence, scale 0 to 100): 0
- Plant response rating, Nutsedge, Yellow [6, 14]: 0
- Plant response rating, Nutsedge, Yellow [6, 15]: 0
- Plant response rating, Nutsedge, Yellow [6, 16]: 0
- Nutsedge, Yellow plant response rating [6, 17]: 0
- Plant response rating, Blackgrass [7, 14]: 20
- Plant response rating, Blackgrass [7, 15]: 50
- Plant response rating, Blackgrass [7, 16]: 100
- Plant response rating, Cupgrass, Woolly [8, 14]: 0
- Plant response rating, Cupgrass, Woolly [8, 15]: 30
- Plant response rating, Cupgrass, Woolly [8, 16]: 55
- Cupgrass, Woolly plant response rating ([8]; Preemergence, scale 0 to 100): 0
- Plant response rating, Bromegrass, Downy [9, 14]: 0
- Plant response rating, Bromegrass, Downy [9, 15]: 50
- Plant response rating, Bromegrass, Downy [9, 16]: 50
- Bromegrass, Downy plant response rating ([9]; Preemergence, scale 0 to 100): 0
- Plant response rating, Lambsquarters [10, 14]: 0
- Plant response rating, Lambsquarters [10, 16]: 0
- Lambsquarters plant response rating [10, 17]: 0
- Plant response rating, Sunflower ([11]; 16 g ai/ha, scale 0 to 100 (0 no effect, 100 complete control)): 0
- Plant response rating, Sunflower ([11]; 31 g ai/ha, 0 to 100 scale, 0 no effect, 100 complete control): 0
- Plant response rating, Sunflower ([11]; 62 g ai/ha, scale 0 to 100): 0
- Sunflower plant response rating ([11]; 8 g ai/ha, scale 0 to 100): 0
- Plant response rating, Foxtail, Giant [12, 14]: 0
- Plant response rating, Foxtail, Giant [12, 15]: 0
- Plant response rating, Foxtail, Giant [12, 16]: 20
- Foxtail, Giant plant response rating ([12]; Preemergence, scale 0 to 100): 0

Compound: CCc1cc(-c2ccc(Br)cc2)nn1-c1c(O)cnn(CC(F)(F)F)c1=O [Compound 73]
- Oat, Wild plant response rating [1, 18]: 70
- Oat, Wild plant response rating [1, 19]: 95
- Plant response rating, Oat, Wild [1, 20]: 100
- Plant response rating, Oat, Wild [1, 21]: 100
- Pigweed plant response rating [2, 18]: 0
- Pigweed plant response rating [2, 19]: 0
- Plant response rating, Pigweed [2, 20]: 0
- Plant response rating, Pigweed [2, 21]: 0
- Ragweed plant response rating [3, 18]: 0
- Ragweed plant response rating [3, 19]: 0
- Plant response rating, Ragweed [3, 20]: 0
- Plant response rating, Ragweed [3, 21]: 0
- Velvetleaf plant response rating [4, 18]: 0
- Velvetleaf plant response rating [4, 19]: 0
- Plant response rating, Velvetleaf [4, 20]: 0
- Plant response rating, Velvetleaf [4, 21]: 0
- Corn plant response rating ([5]; postemergence, 0-100 scale): 95
- Plant response rating, Corn [5, 22]: 100
- Plant response rating, Corn [5, 20]: 100
- Plant response rating, Corn [5, 21]: 100
- Nutsedge, Yellow plant response rating [6, 18]: 0
- Nutsedge, Yellow plant response rating [6, 19]: 0
- Plant response rating, Nutsedge, Yellow [6, 20]: 0
- Plant response rating, Nutsedge, Yellow [6, 21]: 0
- Blackgrass plant response rating [7]: 60
- Plant response rating, Blackgrass [7, 22]: 100
- Plant response rating, Blackgrass [7, 20]: 100
- Plant response rating, Blackgrass [7, 21]: 100
- Kochia plant response rating ([13]; 8 g ai/ha): 0
- Kochia plant response rating ([13]; 16 g ai/ha): 0
- Plant response rating, Kochia ([13]; 31 g ai/ha, scale 0 to 100): 0
- Plant response rating, Kochia [13, 23]: 0
- Cupgrass, Woolly plant response rating ([8]; postemergence, 0-100 scale): 85
- Plant response rating, Cupgrass, Woolly [8, 22]: 98
- Plant response rating, Cupgrass, Woolly [8, 20]: 100
- Plant response rating, Cupgrass, Woolly [8, 21]: 100
- Bromegrass, Downy plant response rating ([9]; postemergence, 0-100 scale): 0
- Plant response rating, Bromegrass, Downy [9, 22]: 0
- Plant response rating, Bromegrass, Downy [9, 20]: 30
- Plant response rating, Bromegrass, Downy [9, 21]: 60
- Lambsquarters plant response rating [10, 18]: 0
- Lambsquarters plant response rating [10, 19]: 0
- Plant response rating, Lambsquarters [10, 20]: 0
- Plant response rating, Lambsquarters [10, 21]: 0
- Foxtail, Giant plant response rating ([12]; postemergence, 0-100 scale): 30
- Plant response rating, Foxtail, Giant [12, 22]: 70
- Plant response rating, Foxtail, Giant [12, 20]: 90
- Plant response rating, Foxtail, Giant [12, 21]: 100

Compound: Cc1nn(C)c(=O)c(-n2nc(-c3ccc(Cl)cc3)cc2Cl)c1O [Compound 59]
- Oat, Wild plant response rating [1, 18]: 45
- Plant response rating, Oat, Wild [1, 22]: 60
- Plant response rating, Oat, Wild [1, 20]: 70
- Plant response rating, Oat, Wild [1, 21]: 80
- Pigweed plant response rating [2, 18]: 0
- Plant response rating, Pigweed [2, 22]: 0
- Plant response rating, Pigweed [2, 20]: 0
- Plant response rating, Pigweed [2, 21]: 0
- Ragweed plant response rating [3, 18]: 0
- Plant response rating, Ragweed [3, 22]: 0
- Plant response rating, Ragweed [3, 20]: 0
- Plant response rating, Ragweed [3, 21]: 0
- Velvetleaf plant response rating [4, 18]: 0
- Plant response rating, Velvetleaf [4, 22]: 0
- Plant response rating, Velvetleaf [4, 20]: 0
- Plant response rating, Velvetleaf [4, 21]: 0
- Corn plant response rating ([5]; postemergence, 0-100 scale): 0
- Plant response rating, Corn [5, 22]: 85
- Plant response rating, Corn [5, 20]: 85
- Plant response rating, Corn [5, 21]: 90
- Nutsedge, Yellow plant response rating [6, 18]: 0
- Plant response rating, Nutsedge, Yellow [6, 22]: 0
- Plant response rating, Nutsedge, Yellow [6, 20]: 0
- Plant response rating, Nutsedge, Yellow [6, 21]: 0
- Blackgrass plant response rating [7]: 0
- Plant response rating, Blackgrass [7, 22]: 60
- Plant response rating, Blackgrass [7, 20]: 90
- Plant response rating, Blackgrass [7, 21]: 90
- Kochia plant response rating ([13]; 8 g ai/ha): 0
- Plant response rating, Kochia ([13]; 16 g ai/ha, scale 0 to 100): 0
- Plant response rating, Kochia ([13]; 31 g ai/ha, scale 0 to 100): 0
- Plant response rating, Kochia [13, 23]: 0
- Cupgrass, Woolly plant response rating ([8]; postemergence, 0-100 scale): 55
- Plant response rating, Cupgrass, Woolly [8, 22]: 60
- Plant response rating, Cupgrass, Woolly [8, 20]: 65
- Plant response rating, Cupgrass, Woolly [8, 21]: 85
- Bromegrass, Downy plant response rating ([9]; postemergence, 0-100 scale): 0
- Plant response rating, Bromegrass, Downy [9, 22]: 5
- Plant response rating, Bromegrass, Downy [9, 20]: 5
- Plant response rating, Bromegrass, Downy [9, 21]: 10
- Lambsquarters plant response rating [10, 18]: 0
- Plant response rating, Lambsquarters [10, 22]: 0
- Plant response rating, Lambsquarters [10, 20]: 0
- Plant response rating, Lambsquarters [10, 21]: 0
- Foxtail, Giant plant response rating ([12]; postemergence, 0-100 scale): 80
- Plant response rating, Foxtail, Giant [12, 22]: 85
- Plant response rating, Foxtail, Giant [12, 20]: 90
- Plant response rating, Foxtail, Giant [12, 21]: 95
